Results from patent US12583856B2, “Inhibitors of protein kinase A” (Blueprint Medicines Corporation, priority 2021, dated 2026).

What was measured:
PRKACA-DNAJB1 = target: T1, PRKACA-DNAJB1 (Homo sapiens, UniProt P17612); assay: PRKACA-DNAJB1 enzyme assay (EZ Reader 2 electrophoretic mobility shift); assay type: biochemical; settings: read-out: Enz PRKACA-DNAJB1 IC50
T1 construct: DNAJB1 (fusion partner, P25685); the other entry of the earlier key: DNAJB1 (P25685, DnaJ homolog subfamily B member 1)
Experimental: (§1) A Perkin Elmer electrophoretic mobility shift platform (the EZ Reader 2) was used to assess the activity of test compounds against a kinase of interest. Fluorescently labeled substrate peptide was incubated in the presence of kinase, ATP, and the test compound, so that a portion of the peptide was phosphorylated by the enzyme. At the end of the reaction, the mix of phosphorylated (product) and non-phosphorylated (substrate) peptide containing solutions was passed through the microfluidic system of the Perkin Elmer EZ Reader 2 under an applied potential difference. The presence of the phosphate group on the product peptide provided a difference in mass and charge between those of the substrate peptide, resulting in a separation of the substrate and product pools in the sample. As the stopped solutions passed under the instrument's LED light the phosphorylated and un-phosphorylated fluorophore bound peptides were detected and resolved as separate peaks. The ratio between these peaks therefore reflected the test compound's impact on the kinase at that concentration in that well under those conditions.

[1] = test system: PKA (phosphorylation of VASP on Serine 157); assay: Cellular potency assay: P-VASP(157) HTRF in Forskolin-stimulated Huh7 cells; assay type: cell-based; settings: Homo sapiens, Huh-7, 4 hours compound, 5 μM Forskolin 30 minutes, read-out: Phos VASP(S157) IC50
From the text: PKA directly phosphorylate VASP on Serine 157. Phosphorylation of VASP on Serine 157. P-VASP(157) was therefore used as a readout of PKA cellular activity. P-VASP(157) was detected with a HTRF assay, which is based on a TR-FRET sandwich immunoassay-based format comprising two specific anti-VASP antibodies following the manufactors protocol (Cisbio, Catalog No. 63ADK066PEH). PKA was activated in the assay by the addition of Forskolin (Sigma-Aldrich, Catalog No. F3917).
Dose response in Forskolin-stimulated human Huh7 cells was measured as follows. Briefly, Huh7 cells were plated at a density of 2×10^4 cells per well in a 384-well opti-well cell culture plate in 15 μl of serum- and phenol-free Dulbecco's Modified Eagle Medium (DMEM, Gibco Catalog No. 21063-029), and incubated for over night at 37° C., 5% CO2. The next day, 3 μl of a dosed concentration series of test compound (0.24%) DMSO final concentration) was added to the wells, and the cells were incubated for an additional 4 hours at 37° C., 5% CO2. 2 μl of Forskolin was added at a final concentration of 5 μM and the plates were incubated for 30 minutes at 37° C., 5% CO2. 5 μl of lysis buffer containing 1% HALT protease cocktail inhibitors (ThermoFisher, Catalog No. 78430), was added to the cells and the mixture was incubated under gentle shaking for 30 min at room temperature. 10 μl of this lysate was transferred to a 384-well proxi plate and 2.5 μL of the premixed antibody solution was added. An antibody solution was prepared by combining phopho-VASP cryptate antibody and phospho-VASP d2 antibody, at twenty-fold dilution into a buffer solution following the manufactors' protocol. The lysate and antibody mixture was incubated for either 3 h at room temperature or overnight at 4° C. The fluorescence emission at two different wavelengths (665 nm and 620 nm) was read on an EnVision instrument.

PRKACA = target: T2, PRKACA (Homo sapiens, UniProt P17612); assay: PRKACA assay at Km (EZ Reader 2 electrophoretic mobility shift); assay type: biochemical; settings: 5 μM ATP (Km), 1 μM Kemptide, 90 minutes at 25 C; read-out: Enz PRKACA IC50
T2 construct: purchased Millipore 539482
Experimental: as §1
PRKACA assay at Km: In each well of a 384-well plate, 0.007 ng/ul (0.18 nM) of PRKACA enzyme (Millipore: 539482) was incubated in a total of 12.5 μl of buffer (100 mM HEPES pH 7.5, 0.015% Brij 35, 10 mM MgCl2, 1 mM DTT) with 1 μM Kemptide peptide substrate (5-FAM-LRRASLG) (Anaspec 29933) and 5 μM ATP at 25 C for 90 minutes in the presence or absence of a dosed concentration series of test compounds (1% DMSO final concentration). The reaction was stopped by the addition of 80 μl of Stop buffer (100 mM HEPES pH 7.5, 0.015% Brij 35, 35 mM EDTA and 0.2% of Coating Reagent 3 (Perkin Elmer)). The plate was then read on the EZ Reader 2 (protocol settings: −2.0 psi, upstream voltage −700, downstream voltage −2700, post sample sip 60 seconds). Data was normalized to 0% and 100% inhibition controls and the IC50 calculated using a 4-parameter fit using GraphPad Prism.

With `O=C(N[C@@H]1c2ccccc2C[C@@H]1CO)c1ccc(-c2ccnc3[nH]ccc23)cc1` (single isomer, unassigned) [Compound 108] the IC50 (PRKACA-DNAJB1) was ≤ 1 nM, the IC50 [1] was < 50 nM and the IC50 (PRKACA) was ≤ 1 nM.

For `O=C(N[C@H]1C[C@H](O)c2cccc(F)c21)c1ccc(-c2ccnc3[nH]ccc23)nc1` (single isomer, unassigned) [Compound 118], the IC50 [1] was 0.01 to 100 nM and the IC50 (PRKACA) was ≤ 1 nM.

With `C[C@@H]1c2cccc(F)c2[C@@H](NC(=O)c2ccc(-c3ccnc4[nH]ccc34)nc2)[C@H]1O` (single isomer, unassigned) [Compound 122] the IC50 [1] was < 50 nM and the IC50 (PRKACA) was ≤ 1 nM.

In the case of `O=C(N[C@H]1c2c(ccc(F)c2F)OC[C@H]1O)c1ccc(-c2ccnc3[nH]ccc23)nc1` (stereo in doubt) [Compound 140, N-[(3S,4S)-5,6-Difluoro-3-hydroxy-3,4-dihydro-2H-1-benzopyran-4-yl]-6-{1H-pyrrolo[2,3-b]pyridin-4-yl}pyridine-3-carboxamide], the IC50 [1] is reported as 0.01 to 100 nM and the IC50 (PRKACA) is reported as ≤ 1 nM.

With `O=C(N[C@H]1CCc2ccc(F)cc21)c1ccc(-c2ccnc3[nH]ccc23)nc1` [Compound 105, N-[(1S)-6-Fluoro-2,3-dihydro-1H-inden-1-yl]-6-{1H-pyrrolo[2,3-b]pyridin-4-yl}pyridine-3-carboxamide] the IC50 [1] was 0.01 to 100 nM and the IC50 (PRKACA) was 1.01 to 5 nM.

For `O=C(N[C@H]1CCc2cccc(F)c21)c1ccc(-c2ccnc3[nH]ccc23)nc1` [Compound 106], the IC50 [1] was 0.01 to 100 nM and the IC50 (PRKACA) was ≤ 1 nM.

`O=C(N[C@@H]1c2ccccc2OC[C@H]1F)c1ccc(-c2ccnc3[nH]ccc23)cc1` [Compound 116, N-[(3S,4R)-3-Fluoro-3,4-dihydro-2H-1-benzopyran-4-yl]-4-{1H-pyrrolo[2,3-b]pyridin-4-yl}benzamide] was tested, and the IC50 [1] was 0.01 to 100 nM and the IC50 (PRKACA) was ≤ 1 nM.

In the case of `O=C(N[C@@H]1c2c(F)cccc2OC[C@@H]1O)c1ccc(-c2ccnc3[nH]ccc23)cc1` [Compound 124], the IC50 [1] is reported as < 50 nM and the IC50 (PRKACA) is reported as ≤ 1 nM.

In the case of `O=C(N[C@@H]1c2c(ccc(F)c2F)C[C@@H]1O)c1ccc(-c2ccnc3[nH]ccc23)nc1` [Compound 132, N-[(1R,2S)-6,7-Difluoro-2-hydroxy-2,3-dihydro-1H-inden-1-yl]-6-{1H-pyrrolo[2,3-b]pyridin-4-yl}pyridine-3-carboxamide], the IC50 [1] is reported as < 50 nM and the IC50 (PRKACA) is reported as ≤ 1 nM.

Compound `O=C(N[C@@H]1c2ccccc2C[C@H]1N1CCC1)c1ccc(-c2ccnc3[nH]ccc23)nc1` [Compound 133] has an IC50 [1] of 0.01 to 100 nM and an IC50 (PRKACA) of 1.01 to 5 nM.

`C[C@H]1Oc2cccc(F)c2[C@@H](NC(=O)c2ccc(-c3ccnc4[nH]ccc34)nc2)[C@@H]1O` [Compound 137] was tested, and the IC50 [1] was 0.01 to 100 nM and the IC50 (PRKACA) was ≤ 1 nM.

For `Cc1c[nH]c2nccc(-c3ccc(C(=O)N[C@H]4CCOc5cc(F)cc(F)c54)cn3)c12` [Compound 138], the IC50 [1] was 0.01 to 100 nM and the IC50 (PRKACA) was ≤ 1 nM.

In the case of `O=C(N[C@H]1CCOc2ccc(Cl)c(F)c21)c1ccc(-c2ccnc3[nH]ccc23)nc1` [Compound 143], the IC50 [1] is reported as < 50 nM and the IC50 (PRKACA) is reported as ≤ 1 nM.

With `CC1CN([C@@H]2Cc3ccccc3[C@H]2NC(=O)c2ccc(-c3ccnc4[nH]ccc34)nc2)C1` [Compound 145] the IC50 [1] was 0.01 to 100 nM and the IC50 (PRKACA) was ≤ 1 nM.

`CCN(CC)[C@@H]1Cc2ccccc2[C@H]1NC(=O)c1ccc(-c2ccnc3[nH]ccc23)nc1` [Compound 147] was tested, and the IC50 [1] was < 50 nM and the IC50 (PRKACA) was 1.01 to 5 nM.

For `C[C@H]1Oc2ccc(F)c(F)c2[C@@H](NC(=O)c2ccc(-c3ccnc4[nH]ccc34)nc2)[C@@H]1O` [Compound 149], the IC50 [1] was < 50 nM and the IC50 (PRKACA) was ≤ 1 nM.

For `Cc1cccc2c1[C@@H](NC(=O)c1ccc(-c3ccnc4[nH]ccc34)nc1)[C@H](N1CCCC1)C2` [Compound 153], the IC50 [1] was 0.01 to 100 nM and the IC50 (PRKACA) was ≤ 1 nM.

With `O=C(N[C@H]1C[C@H](O)c2cc(C(F)F)cc(F)c21)c1ccc(-c2ccnc3[nH]ccc23)nc1` [Compound 155] the IC50 [1] was < 50 nM and the IC50 (PRKACA) was ≤ 1 nM.

For `O=C(N[C@H]1C[C@@H](O)c2cc(C(F)F)cc(F)c21)c1ccc(-c2ccnc3[nH]ccc23)nc1` [Compound 156], the IC50 [1] was < 50 nM and the IC50 (PRKACA) was ≤ 1 nM.

With `O=C(N[C@@H]1c2ccccc2C[C@H]1N1CC[C@H](F)C1)c1ccc(-c2ccnc3[nH]ccc23)nc1` [Compound 158] the IC50 [1] was 0.01 to 100 nM and the IC50 (PRKACA) was ≤ 1 nM.

In the case of `CO[C@@H]1CCN([C@@H]2Cc3ccccc3[C@H]2NC(=O)c2ccc(-c3ccnc4[nH]ccc34)nc2)C1` [Compound 163], the IC50 [1] is reported as 0.01 to 100 nM and the IC50 (PRKACA) is reported as ≤ 1 nM.

With `O=C(N[C@@H]1c2c(F)cc(C(F)F)cc2OC[C@@H]1O)c1ccc(-c2ccnc3[nH]ccc23)nc1` [Compound 164] the IC50 [1] was < 50 nM and the IC50 (PRKACA) was ≤ 1 nM.

`Cc1c[nH]c2nccc(-c3ccc(C(=O)N[C@@H]4c5c(F)cccc5C[C@H]4N4CC(C)C4)cn3)c12` [Compound 166] was tested, and the IC50 [1] was 0.01 to 100 nM and the IC50 (PRKACA) was ≤ 1 nM.

For `O=C(N[C@@H]1c2c(Cl)cccc2C[C@H]1N1CCCC1)c1ccc(-c2ccnc3[nH]ccc23)nc1` [Compound 168], the IC50 [1] was < 50 nM and the IC50 (PRKACA) was ≤ 1 nM.

With `Cc1c[nH]c2nccc(-c3ccc(C(=O)N[C@@H]4c5c(Cl)cccc5C[C@H]4N4CCCC4)cn3)c12` [Compound 174] the IC50 [1] was < 50 nM and the IC50 (PRKACA) was ≤ 1 nM.

For `O=C(N[C@@H]1c2c(ccc(F)c2Cl)C[C@H]1N1CCCC1)c1ccc(-c2ccnc3[nH]ccc23)nc1` [Compound 177], the IC50 [1] was < 50 nM and the IC50 (PRKACA) was ≤ 1 nM.

In the case of `O=C(N[C@@H]1c2c(Cl)cccc2C[C@H]1N1CC[C@H](F)C1)c1ccc(-c2ccnc3[nH]ccc23)nc1` [Compound 178], the IC50 [1] is reported as < 50 nM and the IC50 (PRKACA) is reported as ≤ 1 nM.

`O=C(N[C@@H]1c2c(ccc(F)c2F)C[C@H]1N1CCCC1)c1ccc(-c2ccnc3[nH]cc(F)c23)nc1` [Compound 179] was tested, and the IC50 [1] was < 50 nM and the IC50 (PRKACA) was ≤ 1 nM.

`Cc1c[nH]c2nccc(-c3ccc(C(=O)N[C@@H]4c5c(ccc(F)c5Cl)C[C@H]4N4CCCC4)cn3)c12` [Compound 181] was tested, and the IC50 [1] was < 50 nM and the IC50 (PRKACA) was ≤ 1 nM.

`Cc1c[nH]c2nccc(-c3ccc(C(=O)N[C@@H]4c5c(Cl)cccc5C[C@H]4N4CC[C@H](F)C4)cn3)c12` [Compound 182] was tested, and the IC50 [1] was 0.01 to 100 nM and the IC50 (PRKACA) was ≤ 1 nM.

Work on `O=C(N[C@@H]1c2ccc(C(F)F)cc2C[C@H]1N1CC[C@H](F)C1)c1ccc(-c2ccnc3[nH]ccc23)nc1` [Compound 183] yielded an IC50 [1] of 0.01 to 100 nM and an IC50 (PRKACA) of 1.01 to 5 nM.

Work on `O=C(N[C@@H]1c2c(Cl)cccc2C[C@H]1N1C[C@@H](O)[C@H](F)C1)c1ccc(-c2ccnc3[nH]ccc23)nc1` [Compound 184] yielded an IC50 (PRKACA) of 1.01 to 5 nM.

With `O=C(N[C@@H]1c2c(Cl)cccc2C[C@H]1N1C[C@@H](O)[C@@H](F)C1)c1ccc(-c2ccnc3[nH]ccc23)nc1` [Compound 187] the IC50 [1] was > 100 nM and the IC50 (PRKACA) was 1.01 to 5 nM.

In the case of `CN(C)C(=O)[C@H]1N([C@@H]2Cc3cccc(Cl)c3[C@H]2NC(=O)c2ccc(-c3ccnc4[nH]ccc34)nc2)CC1(C)C` [Compound 192, N-[(1R,2R)-7-Chloro-2-[(2S)-2-(dimethylcarbamoyl)-3,3-dimethylazetidin-1-yl]-2,3-dihydro-1H-inden-1-yl]-6-{1H-pyrrolo[2,3-b]pyridin-4-yl}pyridine-3-carboxamide], the IC50 [1] is reported as < 50 nM and the IC50 (PRKACA) is reported as ≤ 1 nM.

With `CN(C)C(=O)[C@H]1N([C@@H]2Cc3cccc(Cl)c3[C@H]2NC(=O)c2ccc(-c3ccnc4[nH]ccc34)cn2)CC1(C)C` [Compound 193] the IC50 [1] was < 50 nM and the IC50 (PRKACA) was ≤ 1 nM.
